# Laboratory results: publication PMC10518257 (Nature Cancer, 2023)
# Where “and” joins values, the source holds several entries; their conditions need not be identical. Identical values can stand only once.
# What was measured:
# [1] = biological target: T1, panel of 255 (vepafestinib) or 256 (all other inhibitors) recombinant kinases (Homo sapiens, UniProt O14757); assay: Kinase selectivity profiling at a single concentration (Carna Biosciences); assay type: biochemical; details: 23 nM
# T1 construct: purchased Carna Biosciences
# T1 sequence (O14757 whole entry): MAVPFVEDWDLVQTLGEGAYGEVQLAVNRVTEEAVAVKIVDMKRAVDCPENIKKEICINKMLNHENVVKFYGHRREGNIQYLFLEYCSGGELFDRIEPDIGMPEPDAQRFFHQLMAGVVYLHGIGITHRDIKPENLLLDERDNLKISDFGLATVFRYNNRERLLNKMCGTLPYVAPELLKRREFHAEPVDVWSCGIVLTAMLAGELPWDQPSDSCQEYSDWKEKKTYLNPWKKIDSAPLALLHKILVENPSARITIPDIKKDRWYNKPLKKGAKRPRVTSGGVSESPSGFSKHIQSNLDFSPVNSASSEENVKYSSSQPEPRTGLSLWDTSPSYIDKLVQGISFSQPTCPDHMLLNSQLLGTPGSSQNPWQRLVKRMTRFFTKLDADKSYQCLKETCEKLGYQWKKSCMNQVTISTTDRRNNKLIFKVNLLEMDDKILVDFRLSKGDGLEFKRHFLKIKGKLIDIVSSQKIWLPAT
# [2] = biological target: T2, panel of 255 (vepafestinib) or 256 (all other inhibitors) recombinant kinases (Homo sapiens, UniProt P16234); assay: as above; assay type: biochemical; details: 23 nM
# T2 construct: purchased Carna Biosciences
# T2 sequence (P16234 24-1089): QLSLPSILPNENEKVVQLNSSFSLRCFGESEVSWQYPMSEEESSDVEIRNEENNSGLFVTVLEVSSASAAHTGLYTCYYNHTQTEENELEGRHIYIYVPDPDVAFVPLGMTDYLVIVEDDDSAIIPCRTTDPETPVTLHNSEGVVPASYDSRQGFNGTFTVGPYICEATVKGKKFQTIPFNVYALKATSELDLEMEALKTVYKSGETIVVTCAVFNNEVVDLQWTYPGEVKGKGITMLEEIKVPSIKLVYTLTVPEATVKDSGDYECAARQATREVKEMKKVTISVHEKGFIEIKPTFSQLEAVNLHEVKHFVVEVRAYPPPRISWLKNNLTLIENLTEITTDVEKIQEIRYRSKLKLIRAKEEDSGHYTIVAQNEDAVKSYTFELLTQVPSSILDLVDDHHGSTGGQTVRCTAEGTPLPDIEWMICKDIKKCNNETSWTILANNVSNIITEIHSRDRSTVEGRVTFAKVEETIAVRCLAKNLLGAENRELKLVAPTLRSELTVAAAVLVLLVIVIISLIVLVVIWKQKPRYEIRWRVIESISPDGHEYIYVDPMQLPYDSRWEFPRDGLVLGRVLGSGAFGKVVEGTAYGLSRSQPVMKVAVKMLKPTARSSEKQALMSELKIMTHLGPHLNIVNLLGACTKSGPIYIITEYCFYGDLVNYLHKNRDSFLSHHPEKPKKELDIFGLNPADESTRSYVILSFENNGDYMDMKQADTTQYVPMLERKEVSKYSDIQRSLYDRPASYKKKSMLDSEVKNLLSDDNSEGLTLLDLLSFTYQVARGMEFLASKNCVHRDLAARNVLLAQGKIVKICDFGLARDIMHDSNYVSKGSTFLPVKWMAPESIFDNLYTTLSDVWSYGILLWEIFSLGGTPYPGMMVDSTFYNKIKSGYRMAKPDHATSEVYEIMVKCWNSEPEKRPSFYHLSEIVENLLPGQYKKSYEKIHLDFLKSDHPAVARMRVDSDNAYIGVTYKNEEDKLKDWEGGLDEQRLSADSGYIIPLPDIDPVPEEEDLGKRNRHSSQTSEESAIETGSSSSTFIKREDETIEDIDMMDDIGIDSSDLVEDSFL
# [3] = biological target: T3, panel of 255 (vepafestinib) or 256 (all other inhibitors) recombinant kinases (Homo sapiens, UniProt P35916); assay: as above; assay type: biochemical; details: 23 nM
# T3 construct: purchased Carna Biosciences
# T3 sequence (P35916 25-1363): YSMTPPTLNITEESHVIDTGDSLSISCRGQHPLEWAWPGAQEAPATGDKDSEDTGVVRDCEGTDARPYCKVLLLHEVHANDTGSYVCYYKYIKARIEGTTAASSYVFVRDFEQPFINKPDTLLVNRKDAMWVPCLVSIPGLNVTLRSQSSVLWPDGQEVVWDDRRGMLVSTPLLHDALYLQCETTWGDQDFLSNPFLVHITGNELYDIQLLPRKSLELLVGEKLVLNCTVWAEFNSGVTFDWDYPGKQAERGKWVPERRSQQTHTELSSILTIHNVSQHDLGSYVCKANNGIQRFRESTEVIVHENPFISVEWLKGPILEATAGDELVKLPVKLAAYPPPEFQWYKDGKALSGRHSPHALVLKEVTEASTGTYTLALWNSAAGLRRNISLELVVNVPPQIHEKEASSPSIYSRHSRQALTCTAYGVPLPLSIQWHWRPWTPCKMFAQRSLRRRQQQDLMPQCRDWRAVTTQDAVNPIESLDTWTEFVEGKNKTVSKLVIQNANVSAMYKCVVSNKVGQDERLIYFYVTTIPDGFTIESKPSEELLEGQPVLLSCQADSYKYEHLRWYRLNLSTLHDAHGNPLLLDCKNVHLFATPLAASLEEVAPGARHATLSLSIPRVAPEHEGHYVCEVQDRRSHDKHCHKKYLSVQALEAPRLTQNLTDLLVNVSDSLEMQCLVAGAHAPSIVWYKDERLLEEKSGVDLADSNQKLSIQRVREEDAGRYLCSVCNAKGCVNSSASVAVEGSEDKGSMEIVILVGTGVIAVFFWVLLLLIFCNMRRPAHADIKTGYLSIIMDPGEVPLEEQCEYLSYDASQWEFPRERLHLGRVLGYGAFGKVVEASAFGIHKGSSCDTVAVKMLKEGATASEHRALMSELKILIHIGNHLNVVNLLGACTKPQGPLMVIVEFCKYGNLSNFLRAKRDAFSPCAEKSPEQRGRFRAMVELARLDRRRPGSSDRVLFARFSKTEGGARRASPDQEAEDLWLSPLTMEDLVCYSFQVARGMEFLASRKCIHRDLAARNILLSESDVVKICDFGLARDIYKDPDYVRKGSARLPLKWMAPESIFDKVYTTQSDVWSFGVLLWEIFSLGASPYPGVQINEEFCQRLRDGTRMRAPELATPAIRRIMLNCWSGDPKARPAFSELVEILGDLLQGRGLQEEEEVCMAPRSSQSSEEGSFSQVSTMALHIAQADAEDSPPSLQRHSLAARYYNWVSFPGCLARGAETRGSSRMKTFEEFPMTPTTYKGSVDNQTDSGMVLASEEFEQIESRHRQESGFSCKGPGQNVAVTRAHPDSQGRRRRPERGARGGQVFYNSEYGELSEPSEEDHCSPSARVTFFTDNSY
# [4] = biological target: T4, panel of 255 (vepafestinib) or 256 (all other inhibitors) recombinant kinases (Homo sapiens, UniProt P35968); assay: as above; assay type: biochemical; details: 23 nM
# T4 construct: purchased Carna Biosciences
# T4 sequence (P35968 20-1356): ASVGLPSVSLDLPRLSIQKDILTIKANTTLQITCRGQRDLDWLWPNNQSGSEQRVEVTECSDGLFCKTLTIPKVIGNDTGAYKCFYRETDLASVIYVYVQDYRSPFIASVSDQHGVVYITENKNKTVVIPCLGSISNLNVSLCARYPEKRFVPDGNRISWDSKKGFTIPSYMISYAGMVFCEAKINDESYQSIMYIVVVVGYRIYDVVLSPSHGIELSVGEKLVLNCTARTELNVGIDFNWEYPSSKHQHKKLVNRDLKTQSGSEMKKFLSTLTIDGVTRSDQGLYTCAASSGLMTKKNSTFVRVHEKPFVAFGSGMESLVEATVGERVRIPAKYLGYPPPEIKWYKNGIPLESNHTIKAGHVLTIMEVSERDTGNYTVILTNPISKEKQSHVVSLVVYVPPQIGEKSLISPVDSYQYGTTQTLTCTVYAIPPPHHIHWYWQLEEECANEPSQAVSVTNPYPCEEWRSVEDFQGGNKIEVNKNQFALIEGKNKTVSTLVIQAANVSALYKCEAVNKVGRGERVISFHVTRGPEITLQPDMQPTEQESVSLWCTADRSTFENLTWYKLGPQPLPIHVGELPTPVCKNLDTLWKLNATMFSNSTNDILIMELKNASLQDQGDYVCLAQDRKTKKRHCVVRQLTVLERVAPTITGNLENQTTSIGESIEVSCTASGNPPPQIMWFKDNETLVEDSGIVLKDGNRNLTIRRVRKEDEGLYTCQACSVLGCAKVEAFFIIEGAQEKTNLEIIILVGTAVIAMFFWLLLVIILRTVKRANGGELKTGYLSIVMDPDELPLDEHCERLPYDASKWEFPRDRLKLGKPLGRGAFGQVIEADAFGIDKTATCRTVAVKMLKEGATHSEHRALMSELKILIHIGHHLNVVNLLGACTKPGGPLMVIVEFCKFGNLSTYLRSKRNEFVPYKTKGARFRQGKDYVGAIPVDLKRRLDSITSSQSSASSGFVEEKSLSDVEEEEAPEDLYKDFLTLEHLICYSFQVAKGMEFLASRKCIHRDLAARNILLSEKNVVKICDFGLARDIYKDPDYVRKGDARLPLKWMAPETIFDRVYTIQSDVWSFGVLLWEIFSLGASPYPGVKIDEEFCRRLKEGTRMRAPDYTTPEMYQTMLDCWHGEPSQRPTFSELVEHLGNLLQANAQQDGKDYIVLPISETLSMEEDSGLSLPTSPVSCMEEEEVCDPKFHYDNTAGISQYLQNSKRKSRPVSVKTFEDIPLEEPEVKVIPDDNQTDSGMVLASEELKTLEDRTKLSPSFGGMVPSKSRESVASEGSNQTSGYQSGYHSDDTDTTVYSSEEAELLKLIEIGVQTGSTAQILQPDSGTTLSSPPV
# [5] = biological target: T5, panel of 255 (vepafestinib) or 256 (all other inhibitors) recombinant kinases (Homo sapiens, UniProt Q06418); assay: as above; assay type: biochemical; details: 23 nM
# T5 construct: purchased Carna Biosciences
# T5 sequence (Q06418 41-890): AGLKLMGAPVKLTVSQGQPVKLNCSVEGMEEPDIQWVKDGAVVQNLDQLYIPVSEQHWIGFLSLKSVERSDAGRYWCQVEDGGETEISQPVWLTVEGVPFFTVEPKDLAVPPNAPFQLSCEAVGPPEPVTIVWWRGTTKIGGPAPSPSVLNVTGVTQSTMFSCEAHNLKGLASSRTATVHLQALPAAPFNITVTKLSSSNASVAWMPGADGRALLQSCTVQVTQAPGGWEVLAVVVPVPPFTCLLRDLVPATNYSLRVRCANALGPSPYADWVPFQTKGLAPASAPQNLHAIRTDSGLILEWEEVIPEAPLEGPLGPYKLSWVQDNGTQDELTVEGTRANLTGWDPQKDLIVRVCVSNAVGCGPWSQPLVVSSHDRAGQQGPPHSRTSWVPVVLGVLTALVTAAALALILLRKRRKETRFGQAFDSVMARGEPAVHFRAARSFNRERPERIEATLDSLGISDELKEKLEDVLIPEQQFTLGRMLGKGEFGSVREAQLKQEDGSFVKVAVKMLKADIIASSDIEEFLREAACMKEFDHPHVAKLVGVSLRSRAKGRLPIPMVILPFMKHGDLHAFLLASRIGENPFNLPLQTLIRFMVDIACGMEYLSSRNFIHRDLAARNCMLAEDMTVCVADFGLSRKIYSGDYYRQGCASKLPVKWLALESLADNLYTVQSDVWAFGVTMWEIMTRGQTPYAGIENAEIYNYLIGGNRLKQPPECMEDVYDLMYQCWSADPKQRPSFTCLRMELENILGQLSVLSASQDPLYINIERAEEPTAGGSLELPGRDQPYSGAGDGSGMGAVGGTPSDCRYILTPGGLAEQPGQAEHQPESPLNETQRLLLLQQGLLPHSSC
# [6] = biological target: T6, panel of 255 (vepafestinib) or 256 (all other inhibitors) recombinant kinases (Homo sapiens, UniProt Q15375); assay: as above; assay type: biochemical; details: 23 nM
# T6 construct: purchased Carna Biosciences
# [7] = biological target: panel of 255 (vepafestinib) or 256 (all other inhibitors) recombinant kinases; assay: as above; assay type: biochemical; details: 23 nM, panel of 255 recombinant kinases
# [8] = test system: Ba/F3 cells expressing KIF5B–RET^G810C; assay: Growth inhibition assay in Ba/F3 cells (CellTiter-Glo, 72 h); assay type: cell-based; details: Ba/3-KIF5B-RET-G810C; replicate Sets 1-3
# [9] = test system: RET^G810R phosphorylation in Ba/F3 KIF5B–RET^G810R allograft tumors; assay: Western blotting of tumors 1 h after dosing (target engagement); assay type: in vivo, mice; details: 10 mg per kg and 30 mg per kg
# [10] = test system: NIH-3T3 CCDC6-RET luciferase cells implanted intracranially; assay: Intracranial efficacy study; assay type: in vivo, nude mice; details: 50 mg per kg BID from day 5 after implantation
# [11] = test system: LUAD-0057AS1 PDX; assay: PDX efficacy study; details: for Change in Tumor Volume: end of study, individual tumors
# [12] = test system: NIH-3T3-CCDC6::RET xenografts; assay: Subcutaneous xenograft efficacy study
# [13] = test system: ECLC5 xenografts; assay: Subcutaneous xenograft efficacy study; details: for Change in Tumor Volume: end of study, individual tumors
# [14] = 50 mg/kg BID, day 0, individual animals
# [15] = 50 mg/kg BID, day 7, individual animals
# [16] = 50 mg/kg BID, day 14, individual animals
# [17] = 100 mg/kg QD, day 0, individual animals
# [18] = 100 mg/kg QD, day 7, individual animals
# [19] = 100 mg/kg QD, day 14, individual animals
# [20] = 25 mg/kg BID, day 0, individual animals
# [21] = 50 mg/kg QD, day 0, individual animals
structure (smiles),measurement,setting,value
"COCc1ccc(NC(=O)c2c(C#CCN3CCOCC3)n(C3(C)CC3)c3ncnc(N)c23)cc1 [Vepafestinib, 4-amino-N-[4-(methoxymethyl)phenyl]-7-(1-methylcyclopropyl)-6-[3-(morpholin-4-yl)prop-1-yn-1-yl]-7H-pyrrolo[2,3-d]pyrimidine-5-carboxamide]",% Inhibiton CHK1,[1],11.9%
same,% Inhibiton PDGFRα,[2],12.4%
same,% Inhibiton FLT4,[3],46.9%
same,% Inhibiton KDR,[4],36%
same,% Inhibiton TYRO3,[5],8.6%
same,% Inhibiton EPHA7,[6],10.4%
same,kinases inhibited by >50%,[7],one and RET was the only kinase inhibited by >50%
same,GI50,[8],14.5 nM
same,inhibition of RET^G810R phosphorylation in tumors,[9],completely inhibited
same,median survival,[10],52 days
same,tumor shrinkage,[11]; 50 mg per kg BID,44% ± 3%
same,"Area Under Curve of tumor growth, Mean",[11]; 50 mg/kg BID,-1274
same,Tumor volume,[11]; [14],141.55 mm3 and 150.43 mm3 (2×) and 137.16 mm3 and 152.81 mm3 and 132.84 mm3 and 139.24 mm3 and 143.69 mm3
same,Tumor volume,"[11]; 50 mg/kg BID, day 3, individual animals",107.44 mm3 and 102.07 mm3 (2×) and 103.92 mm3 and 105.68 mm3 (2×) and 109.36 mm3 and 109.21 mm3
same,Tumor volume,[11]; [15],86.78 mm3 and 84.95 mm3 (2×) and 83.53 mm3 and 93.45 mm3 and 76.27 mm3 and 91.61 mm3 and 79.29 mm3
same,Tumor volume,"[11]; 50 mg/kg BID, day 10, individual animals",71.99 mm3 and 84.95 mm3 and 77.63 mm3 and 80.7 mm3 (2×) and 69.38 mm3 and 74.9 mm3 and 72.18 mm3
same,Tumor volume,[11]; [16],89.72 mm3 and 88.25 mm3 (2×) and 78.99 mm3 and 76.27 mm3 and 80.7 mm3 and 72.18 mm3
same,Tumor volume,"[11]; 50 mg/kg BID, day 19, individual animals",80.35 mm3 and 77.63 mm3 and 73.3 mm3 (2×) and 71.99 mm3 and 88.25 mm3 and 72.18 mm3
same,Tumor volume,"[11]; 50 mg/kg BID, day 23, individual animals",80.35 mm3 and 82.12 mm3 and 74.61 mm3 and 73.3 mm3 and 71.99 mm3 and 109.29 mm3
same,Change in Tumor Volume,[11]; 50 mg/kg BID,-49.1416% and -46.5865% and -45.4098% and -45.6037% and -52.0319% and -45.807% and -21.5096% and -48.8204%
same,tumor shrinkage,[11]; 100 mg per kg QD,48% ± 1%
same,"Area Under Curve of tumor growth, Mean",[11]; 100 mg/kg QD,-1469
same,Tumor volume,[11]; [17],145.84 mm3 (3×) and 143.69 mm3 and 141.32 mm3 and 152.81 mm3 and 139.24 mm3 and 148.22 mm3
same,Tumor volume,"[11]; 100 mg/kg QD, day 3, individual animals",79.29 mm3 and 83.83 mm3 and 80.7 mm3 (2×) and 91.87 mm3 (3×) and 95.24 mm3
same,Tumor volume,[11]; [18],71.99 mm3 and 77.87 mm3 and 69.14 mm3 and 72.18 mm3 and 69.38 mm3 and 74.61 mm3 and 80.7 mm3 and 70.69 mm3
same,Tumor volume,"[11]; 100 mg/kg QD, day 10, individual animals",71.99 mm3 and 80.89 mm3 and 66.35 mm3 and 72.18 mm3 and 69.38 mm3 and 74.61 mm3 and 77.87 mm3 and 70.69 mm3
same,Tumor volume,[11]; [19],77.63 mm3 (2×) and 83.83 mm3 and 74.61 mm3 (2×) and 69.38 mm3 and 87.03 mm3 and 75.92 mm3
same,Tumor volume,"[11]; 100 mg/kg QD, day 19, individual animals",68.09 mm3 and 80.7 mm3 and 73.3 mm3 (2×) and 77.63 mm3 and 74.61 mm3 (2×) and 78.99 mm3
same,Change in Tumor Volume,[11]; 100 mg/kg QD,-49.7394% and -48.9874% and -48.1319% and -52.0319% and -45.2241% and -47.703% and -43.6917% and -45.79%
same,"Area Under Curve of tumor growth, Mean",[12]; 25 mg/kg BID,1601
same,Tumor volume,[12]; [20],93.59 mm3 (2×) and 90.28 mm3 (3×)
same,Tumor volume,"[12]; 25 mg/kg BID, day 2, individual animals",193.69 mm3 and 110.58 mm3 and 112.28 mm3 and 116.25 mm3 (2×)
same,Tumor volume,"[12]; 25 mg/kg BID, day 5, individual animals",537.65 mm3 and 353.84 mm3 and 294.89 mm3 and 435.05 mm3 and 334.49 mm3
same,Tumor volume,"[12]; 25 mg/kg BID, day 8, individual animals",612.84 mm3 and 590.68 mm3 and 301.59 mm3 and 585.96 mm3 and 389.56 mm3
same,Tumor volume,"[12]; 25 mg/kg QD, day 0, individual animals",85.5 mm3 (2×) and 93.59 mm3 and 90.28 mm3 (2×)
same,Tumor volume,"[12]; 25 mg/kg QD, day 5, individual animals",285.69 mm3 and 281.26 mm3 and 438.74 mm3 and 367.92 mm3 and 382.08 mm3
same,Tumor volume,"[12]; 25 mg/kg QD, day 8, individual animals",705.04 mm3 and 750.45 mm3 and 1169.92 mm3 and 945.8 mm3 and 1108.35 mm3
same,"Area Under Curve of tumor growth, Mean",[12]; 50 mg/kg BID,678.7
same,Tumor volume,[12]; [14],90.28 mm3
same,Tumor volume,"[12]; 50 mg/kg BID, day 5, individual animals",225.29 mm3 and 277.15 mm3 and 217.15 mm3 and 205.88 mm3 and 223.64 mm3
same,Tumor volume,"[12]; 50 mg/kg BID, day 8, individual animals",231.59 mm3 and 332.9 mm3 and 291.54 mm3 and 235.62 mm3 (2×)
same,Tumor volume,[12]; [21],93.59 mm3 and 83.97 mm3 (2×) and 85.5 mm3 and 90.28 mm3
same,Tumor volume,"[12]; 50 mg/kg QD, day 5, individual animals",270.08 mm3 and 180.15 mm3 and 189.86 mm3 and 245.54 mm3 and 226.78 mm3
same,Tumor volume,"[12]; 50 mg/kg QD, day 8, individual animals",466.45 mm3 and 389.65 mm3 and 491.45 mm3 and 378.3 mm3 and 446.6 mm3
same,"Area Under Curve of tumor growth, Mean",[12]; 100 mg/kg QD,371
same,Tumor volume,[12]; [17],83.97 mm3 (4×) and 85.5 mm3
same,Tumor volume,"[12]; 100 mg/kg QD, day 5, individual animals",153.78 mm3 and 149.63 mm3 and 176.28 mm3 and 145.47 mm3 and 154.42 mm3
same,Tumor volume,"[12]; 100 mg/kg QD, day 8, individual animals",153.78 mm3 and 197.55 mm3 and 200.12 mm3 (2×) and 192.42 mm3
same,"Area Under Curve of tumor growth, Mean",[13]; 25 mg/kg BID,-1045
same,Tumor volume,[13]; [20],91.87 mm3 (2×) and 88.56 mm3 (2×) and 85.31 mm3
same,Tumor volume,"[13]; 25 mg/kg BID, day 4, individual animals",74.9 mm3 (2×) and 77.87 mm3 and 71.99 mm3 and 69.38 mm3
same,Tumor volume,"[13]; 25 mg/kg BID, day 7, individual animals",60.32 mm3 (2×) and 59.11 mm3 and 58.99 mm3 (2×)
same,Tumor volume,"[13]; 25 mg/kg BID, day 11, individual animals",60.32 mm3 and 48.77 mm3 and 55.52 mm3 and 54.07 mm3 (2×)
same,Tumor volume,"[13]; 25 mg/kg BID, day 14, individual animals",60.32 mm3 and 48.77 mm3 and 55.52 mm3 and 54.07 mm3 (2×)
same,Change in Tumor Volume,[13]; 25 mg/kg BID,-43.3221% and -50.8017% and -52.5743% and -65.5492% and -27.8004%
same,tumor regression,[13]; 50 mg per kg BID,100% ± 0%
same,"Area Under Curve of tumor growth, Mean",[13]; 50 mg/kg BID,-1486
same,Tumor volume,[13]; [14],83.83 mm3 and 88.56 mm3 (2×) and 87.03 mm3 and 85.31 mm3
same,Tumor volume,"[13]; 50 mg/kg BID, day 4, individual animals",68.07 mm3 and 72.18 mm3 (2×) and 66.63 mm3 (2×)
same,Tumor volume,[13]; [15],39.61 mm3 and 59.11 mm3 and 58.99 mm3 and 61.52 mm3 and 53.18 mm3
same,Tumor volume,"[13]; 50 mg/kg BID, day 11, individual animals",36.97 mm3 and 42.6 mm3 and 49.37 mm3 and 48.41 mm3 and 48.77 mm3
same,Tumor volume,[13]; [16],36.97 mm3 and 42.6 mm3 and 41.37 mm3 and 45.5 mm3 and 44.53 mm3
same,Change in Tumor Volume,[13]; 50 mg/kg BID,-100%
same,"Area Under Curve of tumor growth, Mean",[13]; 50 mg/kg QD,-1322
same,Tumor volume,[13]; [21],85.31 mm3 and 83.83 mm3 and 88.56 mm3 and 91.87 mm3 and 90.28 mm3
same,Tumor volume,"[13]; 50 mg/kg QD, day 4, individual animals",72.18 mm3 (2×) and 75.04 mm3 and 68.07 mm3 and 69.38 mm3
same,Tumor volume,"[13]; 50 mg/kg QD, day 7, individual animals",50.89 mm3 and 53.18 mm3 and 49.83 mm3 (2×) and 48.77 mm3
same,Tumor volume,"[13]; 50 mg/kg QD, day 11, individual animals",52.07 mm3 (2×) and 57.91 mm3 and 49.83 mm3 and 48.77 mm3
same,Tumor volume,"[13]; 50 mg/kg QD, day 14, individual animals",52.07 mm3 (2×) and 57.91 mm3 and 48.77 mm3 and 62.73 mm3
same,Change in Tumor Volume,[13]; 50 mg/kg QD,-57.7775% and -61.9945% and -68.4282% and -71.9277% and -43.6309%
same,tumor regression,[13]; 100 mg per kg QD,90.3% ± 4%
same,"Area Under Curve of tumor growth, Mean",[13]; 100 mg/kg QD,-1970
same,Tumor volume,[13]; [17],91.87 mm3 (2×) and 88.56 mm3 and 85.31 mm3 (2×)
same,Tumor volume,"[13]; 100 mg/kg QD, day 4, individual animals",47.71 mm3 and 52.07 mm3 (2×) and 49.83 mm3 and 50.97 mm3
same,Tumor volume,[13]; [18],38.79 mm3 and 35.19 mm3 and 30.11 mm3 (2×) and 25.42 mm3
same,Tumor volume,"[13]; 100 mg/kg QD, day 11, individual animals",38.79 mm3 and 35.19 mm3 and 26.94 mm3 (2×) and 30.11 mm3
same,Tumor volume,[13]; [19],34.35 mm3 and 35.19 mm3 and 26.94 mm3 and 28.5 mm3 and 30.11 mm3
same,Change in Tumor Volume,[13]; 100 mg/kg QD,-85.621% and -100% and -81.7724% and -84.0971%
